Here are results for four compounds from patent US20250214966A1, “Crystalline Salt Form Of A SHP2 Inhibitor” (Array BioPharma Inc., priority 2022, published 2025).

SMILES strings stand for the structures. Like-named read-outs stand apart in the source and are kept apart here.

Holding throughout (format): physicochemical
The nature of data set [1]: Solubility of salts in buffer systems at 37° C. (Table 14). The note with it: 20 mg in 1 mL; for solubility at 18 h: thermodynamic from solid. The protocol:
The solubility (Table 14) was determined by adding 20 mg of salts (Examples 3 to 8) into 3 HPLC vials, to each vial, a magnetic stirrer bar was added along with 1 mL of the appropriate buffer system (pH 1.2 HCl, pH 4.5 sodium acetate, or pH 6.8 phosphate). The samples were agitated at 37° C. for […]. After 24 hours, the slurries were isolated by centrifugation filtration and isolated mother liquors were analyzed by HPLC.
HPLC method (Table 14): A Dionex Ultimate 3000 HPLC instrument was used with a Waters XSelect HSS T3 Column (100 angstrom, 4.6×150 mm, 5 μm). The column temperature was set to 20° C., the UV wavelength set to 254 nm, the injection volume was 10 μL, with a flow rate of 1.0 mL/min. 10 mM ammonium acetate adjusted to pH 4.8 was used as a mobile phase A, and acetonitrile was used as mobile phase B. The gradient method was set up to achieve 15% mobile phase B at 0 minutes, 95% mobile phase B at 17 minutes—held until 22 minutes, 15% mobile phase B at 22.1 minutes—held until 28 minutes.

Data set [2] can be described thus: TGA/DSC of salts (Table 14). The note with it: 10° C./min. The method, then: TGA/DSC (Table 14): Approximately, 5-10 mg of material was added into a pre-tared open aluminum pan and loaded into a TA Instruments Discovery SDT 650 Auto—Simultaneous DSC and held at room temperature. The sample was then heated at a rate of 10° C./min from 20° C. (ambient) to 400° C. during which time the change in sample weight was recorded along with the heat flow response (DSC). Nitrogen was used as the sample purge gas, at a flow rate of 200 cm3/min.
DSC (Table 14): Approximately, 1-5 mg of material was weighed into an aluminum DSC pan and sealed nonhermetically with an aluminum lid. The sample pan was then loaded into a TA Instruments Discovery DSC 2500 differential scanning calorimeter equipped with a RC90 cooler. The sample and reference were heated to 310° C. at a scan rate of 10° C./min and the resulting heat flow response monitored. The sample was re-cooled to 20° C. and then reheated again to 205° C. all at 10° C./min. Nitrogen was used as the purge gas, at a flow rate of 50 cm^3/min.

Data set [3] in a line: Dynamic vapor sorption of salts (Table 14). The note with it: 25° C.; for DVS weight change: ramping 40-90% RH. The method, then:
DVS (Table 14): Approximately, 10-20 mg of sample was placed into a mesh vapor sorption balance pan and loaded into a DVS Intrinsic dynamic vapor sorption balance by Surface Measurement Systems. The sample was subjected to a ramping profile from 40-90% relative humidity (RH) at 10% increments, maintaining the sample at each step until a stable weight had been achieved (dm/dt 0.004%, minimum step length 30 minutes, maximum step length 500 minutes) at 25° C. After completion of the sorption cycle, the sample was dried using the same procedure to 0% RH and then a second sorption cycle back to 40% RH. Two cycles were performed. Theweight change during the sorption/desorption cycles were plotted, allowing for the hygroscopic nature of the sample to be determined. XRPD analysis was then carried out on any solid retained. […] The sample was subjected to a ramping profile from 40-90% relative humidity (RH) at 10% increments, maintaining the sample at each step until a stable weight had been achieved (dm/dt 0.004%, minimum step length 30 minutes, maximum step length 500 minutes) at 25° C. After completion of the sorption cycle, the sample was dried using the same procedure to 0% RH and then a second sorption cycle back to 40% RH. Two cycles were performed. The weight change during the sorption/desorption cycles were plotted, allowing for the hygroscopic nature of the sample to be determined. XRPD analysis was then carried out on any solid retained.

Setting [4] is: pH 1.2 HCl buffer, simulated gastric fluid, pH 1.2 HCl, read-out: Solubility pH 1.2 HCl.
Setting [5] is: pH 4.5 sodium acetate buffer, aqueous buffer, pH 4.5 sodium acetate, read-out: Solubility pH 4.5 Sodium Acetate.
Where [6] appears, read: pH 6.8 phosphate buffer, aqueous buffer, pH 6.8 phosphate, read-out: Solubility Ph 6.8 Phosphate.

For the compound `Nc1nccc(Sc2cnc(N3CCC4(CC3)Cc3ccccc3[C@H]4N)nn2)c1Cl.O=P(O)(O)O` [Example 4, (S)-1′-(6-((2-Amino-3-chloropyridin-4-yl)thio)-1,2,4-triazin-3-yl)-1,3-dihydrospiro[indene-2,4′-piperidin]-1-amine phosphate (Pattern 1)], the “Solubility pH 1.2 HCl (mg/mL)” value in data set [1] (pH 1.2 HCl) was greater than 20 mg/mL. Further, in data set [1] (pH 4.5 sodium acetate), the Solubility pH 4.5 Sodium Acetate was 0.3 mg/mL. Moreover, in data set [1] (pH 6.8 phosphate), the “Solubility Ph 6.8 Phosphate” value was found to be 9300 µg/mL. Further, the “TGA/DSC Melt/degradation” value in data set [2] is 100 °C. Besides, in data set [3], the DVS hygroscopic nature entry is “Hygroscopic” and the DVS weight change was 6.3%.

On to `Nc1nccc(Sc2cnc(N3CCC4(CC3)Cc3ccccc3[C@H]4N)nn2)c1Cl.O=P(O)(O)O` [Example 5, (S)-1′-(6-((2-Amino-3-chloropyridin-4-yl)thio)-1,2,4-triazin-3-yl)-1,3-dihydrospiro[indene-2,4′-piperidin]-1-amine phosphate (Pattern 2)], for which the “Solubility pH 1.2 HCl (mg/mL)” value in data set [1] (pH 1.2 HCl) is recorded as greater than 20 mg/mL. The Solubility pH 4.5 Sodium Acetate in data set [1] (pH 4.5 sodium acetate) came out at 0.4 mg/mL. Besides, in data set [1] (pH 6.8 phosphate), the “Solubility Ph 6.8 Phosphate” value is 1900 µg/mL. For the same compound, the “TGA/DSC Melt/degradation” value in data set [2] is 174 °C. Moreover, in data set [3], the DVS hygroscopic nature entry is “Hygroscopic” and the DVS weight change was 7.6%.

Consider `Nc1nccc(Sc2cnc(N3CCC4(CC3)Cc3ccccc3[C@H]4N)nn2)c1Cl.O=C(O)/C=C/C(=O)O` [Example 6, (S)-1′-(6-((2-Amino-3-chloropyridin-4-yl)thio)-1,2,4-triazin-3-yl)-1,3-dihydrospiro[indene-2,4′-piperidin]-1-amine fumarate], for which the solubility at 18 h in data set [1] (setting [4]) is greater than 20000 µg/mL; in data set [1] (setting [5]), 200 µg/mL; in data set [1] (setting [6]), 400 µg/mL. For the same compound, in data set [2], the “TGA/DSC Melt/degradation” value stood at 225.7 °C. In addition, the DVS hygroscopic nature entry in data set [3] was “Hygroscopic”. Further, the DVS weight change in data set [3] was 2.1%.

`Nc1nccc(Sc2cnc(N3CCC4(CC3)Cc3ccccc3[C@H]4N)nn2)c1Cl.O=C(O)C(O)C(O)C(=O)O` [Example 7, (S)-1′-(6-((2-Amino-3-chloropyridin-4-yl)thio)-1,2,4-triazin-3-yl)-1,3-dihydrospiro[indene-2,4′-piperidin]-1-amine tartrate]: the results for the solubility at 18 h in data set [1] (setting [4]), in data set [1] (setting [5]) and in data set [1] (setting [6]) were greater than 20000 µg/mL, 400 µg/mL and 1200 µg/mL, respectively. The “TGA/DSC Melt/degradation” value in data set [2] was found to be 187 °C. For the same compound, the DVS hygroscopic nature entry in data set [3] is listed as “Hygroscopic”. In data set [3], the DVS weight change is reported as 5.8%.
